Laboratory results published in patent US20240092758A1, “IMIDAZOLO INDAZOLE COMPOUNDS AS JAK INHIBITORS” (Theravance Biopharma R&D IP, LLC, priority 2021, published 2024).

Experiments:
JAK2 = JAK2 (Homo sapiens (Human), UniProt O60674); experiment: Biochemical JAK kinase assay (LanthaScreen), JAK2; settings: for Ki: read-out: JAK2 pKi (converted)
Outline: (§1)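 LanthaScreen format: phospho-STAT1 (pTyr701) detected with 2 nM Tb antibody after 10 mM EDTA quench. Kinase step used Km-level ATP and 200 nM STAT1 peptide, 1 h at ambient after 1 h pre-incubation. Inhibition fitted to IC50, reported as pKi.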

[1] = test system: IL-13 induced STAT6 phosphorylation in BEAS-2B human lung epithelial cells; experiment: Cellular JAKI potency assay (BEAS-2B); format: cell-based; settings: Homo sapiens, BEAS-2B, BEAS-2B cells, read-out: BEAS2B pIC50 (converted)
Outline: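 BEAS-2B cells were preincubated with compound (0.1% DMSO) in HBSS/HEPES/BSA for 1 h at 37 °C, then stimulated with IL-13 (80 ng/mL before addition) for 30 min. After lysis, pSTAT6 (Tyr641) was quantified by AlphaLISA SureFire; IC50 from a 4-parameter fit of percent inhibition, reported as pIC50.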

JAK1 = JAK1 (Homo sapiens (Human), UniProt P23458); experiment: Biochemical JAK kinase assay (LanthaScreen), JAK1; settings: for Ki: read-out: JAK1 pKi (converted)
Sequence of JAK1 (P23458 whole entry): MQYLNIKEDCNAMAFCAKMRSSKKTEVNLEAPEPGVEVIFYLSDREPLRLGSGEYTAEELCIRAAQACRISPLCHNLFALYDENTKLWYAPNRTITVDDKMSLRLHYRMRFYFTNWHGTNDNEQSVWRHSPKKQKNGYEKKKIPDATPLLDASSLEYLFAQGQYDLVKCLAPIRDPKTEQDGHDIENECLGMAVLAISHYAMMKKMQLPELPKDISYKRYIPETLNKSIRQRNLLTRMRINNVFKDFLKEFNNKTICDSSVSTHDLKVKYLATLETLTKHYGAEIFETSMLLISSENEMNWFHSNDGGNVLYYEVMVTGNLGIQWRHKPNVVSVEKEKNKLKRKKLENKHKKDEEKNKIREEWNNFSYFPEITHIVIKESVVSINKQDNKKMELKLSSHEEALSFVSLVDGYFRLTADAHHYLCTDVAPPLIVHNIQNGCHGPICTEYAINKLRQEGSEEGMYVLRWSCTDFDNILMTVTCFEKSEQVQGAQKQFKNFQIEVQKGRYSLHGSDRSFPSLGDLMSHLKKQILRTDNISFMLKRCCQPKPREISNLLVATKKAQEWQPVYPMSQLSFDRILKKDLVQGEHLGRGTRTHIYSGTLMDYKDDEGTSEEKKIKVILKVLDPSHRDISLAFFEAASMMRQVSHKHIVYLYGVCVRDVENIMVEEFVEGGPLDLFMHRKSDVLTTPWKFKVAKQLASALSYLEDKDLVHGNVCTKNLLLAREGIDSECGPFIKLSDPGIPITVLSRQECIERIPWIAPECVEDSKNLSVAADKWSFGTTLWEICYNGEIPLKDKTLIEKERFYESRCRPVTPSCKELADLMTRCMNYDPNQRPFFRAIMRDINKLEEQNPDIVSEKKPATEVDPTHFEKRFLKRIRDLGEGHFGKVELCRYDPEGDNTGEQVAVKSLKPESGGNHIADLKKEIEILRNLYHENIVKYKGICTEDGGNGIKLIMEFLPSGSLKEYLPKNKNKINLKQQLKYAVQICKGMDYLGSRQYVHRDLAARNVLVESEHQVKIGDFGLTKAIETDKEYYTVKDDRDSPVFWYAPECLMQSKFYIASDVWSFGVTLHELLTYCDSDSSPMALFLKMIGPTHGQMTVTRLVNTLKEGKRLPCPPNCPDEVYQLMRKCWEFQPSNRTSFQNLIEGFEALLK
Outline: as §1

JAK3 = JAK3 (Homo sapiens (Human), UniProt P52333); experiment: Biochemical JAK kinase assay (LanthaScreen), JAK3; settings: read-out: JAK3 pKi (converted)
Sequence of JAK3 (P52333 whole entry): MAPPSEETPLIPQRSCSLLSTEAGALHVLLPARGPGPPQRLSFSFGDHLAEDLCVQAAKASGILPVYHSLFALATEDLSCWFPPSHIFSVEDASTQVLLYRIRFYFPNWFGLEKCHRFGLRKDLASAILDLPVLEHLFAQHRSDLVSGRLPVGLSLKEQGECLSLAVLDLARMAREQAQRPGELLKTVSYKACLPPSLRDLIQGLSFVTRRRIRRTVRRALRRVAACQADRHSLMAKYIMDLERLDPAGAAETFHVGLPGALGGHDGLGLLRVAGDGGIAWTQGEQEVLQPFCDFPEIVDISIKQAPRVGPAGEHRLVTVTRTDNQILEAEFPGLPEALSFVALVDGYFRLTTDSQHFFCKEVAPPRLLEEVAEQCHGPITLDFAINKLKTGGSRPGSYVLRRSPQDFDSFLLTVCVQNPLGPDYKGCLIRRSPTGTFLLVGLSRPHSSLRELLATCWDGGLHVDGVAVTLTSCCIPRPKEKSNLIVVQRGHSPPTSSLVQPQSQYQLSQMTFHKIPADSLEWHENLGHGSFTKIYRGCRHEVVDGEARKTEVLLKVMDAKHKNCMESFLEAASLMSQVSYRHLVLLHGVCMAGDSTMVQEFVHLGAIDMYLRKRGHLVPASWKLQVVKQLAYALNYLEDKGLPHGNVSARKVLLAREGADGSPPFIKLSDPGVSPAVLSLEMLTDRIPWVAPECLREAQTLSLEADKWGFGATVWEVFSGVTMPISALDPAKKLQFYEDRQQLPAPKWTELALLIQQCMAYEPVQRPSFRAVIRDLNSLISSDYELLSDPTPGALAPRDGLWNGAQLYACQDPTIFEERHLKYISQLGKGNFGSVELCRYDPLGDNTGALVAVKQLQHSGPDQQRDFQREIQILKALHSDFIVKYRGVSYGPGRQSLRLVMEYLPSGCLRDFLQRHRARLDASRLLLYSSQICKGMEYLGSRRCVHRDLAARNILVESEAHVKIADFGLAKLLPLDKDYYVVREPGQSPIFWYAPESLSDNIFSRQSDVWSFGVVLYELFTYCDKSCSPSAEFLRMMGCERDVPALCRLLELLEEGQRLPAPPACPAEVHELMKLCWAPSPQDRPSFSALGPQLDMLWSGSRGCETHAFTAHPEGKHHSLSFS
Procedure: (§2) A panel of four LanthaScreen JAK biochemical assays (JAK1, 2, 3 and Tyk2) were carried in a common kinase reaction buffer (50 mM HEPES, pH 7.5, 0.01% Brij-35, 10 mM MgCl2, and 1 mM EGTA). Recombinant GST-tagged JAK enzymes and a GFP-tagged STAT1 peptide substrate were obtained from Life Technologies.
(§3) Serially diluted compounds were pre-incubated with each of the four JAK enzymes and the substrate in white 384-well microplates (Corning) at ambient temperature for 1 h. ATP was subsequently added to initiate the kinase reactions in 10 μL total volume, with 1% DMSO. The final enzyme concentrations for JAK1, 2, 3 and Tyk2 are 4.2 nM, 0.1 nM, 1 nM, and 0.25 nM respectively; the corresponding Km ATP concentrations used are 25 μM, 3 μM, 1.6 μM, and 10 μM; while the substrate concentration is 200 nM for all four assays. Kinase reactions were allowed to proceed for 1 hour at ambient temperature before a 10 μL preparation of EDTA (10 mM final concentration) and Tb-anti-pSTAT1 (pTyr701) antibody (Life Technologies, 2 nM final concentration) in TR-FRET dilution buffer (Life Technologies) was added. The plates were allowed to incubate at ambient temperature for 1 h before being read on the EnVision reader (Perkin Elmer). Emission ratio signals (520 nm/495 nm) were recorded and utilized to calculate the percent inhibition values based on DMSO and background controls.
(§4) For dose-response analysis, percent inhibition data were plotted vs. compound concentrations, and IC50 values were determined from a 4-parameter robust fit model with the Prism software (GraphPad Software). Results were expressed as pIC50 (negative logarithm of IC50) and subsequently converted to pKi (negative logarithm of dissociation constant, Ki) using the Cheng-Prusoff equation.
(§5) Test compounds having a lower Ki value or higher pKi value in the four JAK assays show greater inhibition of JAK activity.

TYK2 = TYK2 (Homo sapiens (Human), UniProt P29597); experiment: Biochemical JAK kinase assay (LanthaScreen), Tyk2; settings: read-out: Tyk2 pKi (converted)
Sequence of TYK2 (P29597 whole entry): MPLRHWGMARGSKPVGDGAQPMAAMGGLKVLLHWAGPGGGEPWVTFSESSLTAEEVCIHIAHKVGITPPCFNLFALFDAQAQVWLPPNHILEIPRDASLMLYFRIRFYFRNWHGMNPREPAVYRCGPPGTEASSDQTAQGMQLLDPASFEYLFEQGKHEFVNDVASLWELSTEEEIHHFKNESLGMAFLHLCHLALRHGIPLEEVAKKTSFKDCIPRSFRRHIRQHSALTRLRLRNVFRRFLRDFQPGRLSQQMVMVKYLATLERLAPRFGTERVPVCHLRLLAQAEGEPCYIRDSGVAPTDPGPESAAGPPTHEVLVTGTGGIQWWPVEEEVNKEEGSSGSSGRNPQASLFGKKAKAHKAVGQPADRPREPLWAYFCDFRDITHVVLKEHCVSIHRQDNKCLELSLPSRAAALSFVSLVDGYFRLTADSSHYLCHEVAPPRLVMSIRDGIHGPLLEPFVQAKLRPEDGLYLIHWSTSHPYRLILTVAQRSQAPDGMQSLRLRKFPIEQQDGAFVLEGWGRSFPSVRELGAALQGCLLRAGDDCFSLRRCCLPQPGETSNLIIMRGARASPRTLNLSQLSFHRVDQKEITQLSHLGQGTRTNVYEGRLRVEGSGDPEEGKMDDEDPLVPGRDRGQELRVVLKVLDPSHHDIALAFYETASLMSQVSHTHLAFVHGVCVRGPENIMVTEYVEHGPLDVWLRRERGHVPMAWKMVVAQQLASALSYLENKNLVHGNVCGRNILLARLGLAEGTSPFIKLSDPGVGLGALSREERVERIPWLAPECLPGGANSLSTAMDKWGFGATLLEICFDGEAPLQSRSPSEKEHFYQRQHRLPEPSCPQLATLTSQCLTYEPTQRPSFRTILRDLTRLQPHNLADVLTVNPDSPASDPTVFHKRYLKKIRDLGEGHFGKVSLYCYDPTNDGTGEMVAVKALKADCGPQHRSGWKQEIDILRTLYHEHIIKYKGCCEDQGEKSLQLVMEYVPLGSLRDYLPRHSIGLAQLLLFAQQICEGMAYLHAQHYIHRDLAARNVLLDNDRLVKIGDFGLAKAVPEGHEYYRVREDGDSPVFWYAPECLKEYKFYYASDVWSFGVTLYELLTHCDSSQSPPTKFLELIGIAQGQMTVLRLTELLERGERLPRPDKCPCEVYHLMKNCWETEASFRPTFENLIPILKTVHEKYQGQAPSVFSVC
Procedure: as §2, §3, §4, §5

Sequence of JAK2 (O60674 whole entry): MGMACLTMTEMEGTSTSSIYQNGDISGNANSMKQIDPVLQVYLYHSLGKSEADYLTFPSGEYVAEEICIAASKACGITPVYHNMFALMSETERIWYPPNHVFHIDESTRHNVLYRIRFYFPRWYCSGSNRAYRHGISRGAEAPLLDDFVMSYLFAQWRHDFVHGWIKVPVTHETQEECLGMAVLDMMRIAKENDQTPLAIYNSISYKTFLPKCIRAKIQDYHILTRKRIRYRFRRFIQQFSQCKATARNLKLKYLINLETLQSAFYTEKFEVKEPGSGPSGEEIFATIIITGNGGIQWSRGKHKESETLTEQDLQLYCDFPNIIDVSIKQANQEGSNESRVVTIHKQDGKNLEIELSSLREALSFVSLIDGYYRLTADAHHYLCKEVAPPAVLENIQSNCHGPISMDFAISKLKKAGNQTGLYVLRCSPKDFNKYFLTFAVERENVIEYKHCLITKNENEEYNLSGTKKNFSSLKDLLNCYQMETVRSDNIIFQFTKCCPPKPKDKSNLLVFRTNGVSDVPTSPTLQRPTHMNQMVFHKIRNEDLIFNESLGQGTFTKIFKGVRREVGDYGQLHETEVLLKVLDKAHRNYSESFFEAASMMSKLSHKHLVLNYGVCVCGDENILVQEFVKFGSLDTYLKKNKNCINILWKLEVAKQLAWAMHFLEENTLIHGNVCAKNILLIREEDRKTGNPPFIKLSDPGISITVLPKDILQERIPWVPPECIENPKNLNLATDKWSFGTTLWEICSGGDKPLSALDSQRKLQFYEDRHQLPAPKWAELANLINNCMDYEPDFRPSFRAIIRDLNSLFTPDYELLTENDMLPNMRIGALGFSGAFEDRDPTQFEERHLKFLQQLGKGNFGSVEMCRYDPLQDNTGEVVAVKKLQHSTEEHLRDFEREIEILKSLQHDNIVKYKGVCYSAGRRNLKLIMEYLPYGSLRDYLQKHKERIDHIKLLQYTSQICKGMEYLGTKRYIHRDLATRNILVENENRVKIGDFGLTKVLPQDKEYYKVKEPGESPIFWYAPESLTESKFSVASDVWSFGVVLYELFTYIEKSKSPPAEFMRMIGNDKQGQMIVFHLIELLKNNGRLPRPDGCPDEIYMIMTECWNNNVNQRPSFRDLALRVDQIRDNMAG

Compound	JAK2 pKi (JAK2)	IC50 [1] [nM]	JAK1 pKi (JAK1)	Ki (JAK3) [nM]	Ki (TYK2) [nM]	Ki (JAK2) [nM]	Ki (JAK1) [nM]
CCc1cc(O)ccc1-c1ccc2c(-c3nc(C4=CCN(CCCO)C4)c[nH]3)n[nH]c2c1F [Example 54]	A (A represents a pKi value ≥10 (Ki≤0.1 nM))	3.16 to 10	A (A represents a pKi value ≥10 (Ki≤0.1 nM))	0.1 to 1	1 to 10	–	–
CCc1cc(O)ccc1-c1ccc2c(-c3nc(C4=CCN(C5COC5)CC4)c[nH]3)n[nH]c2c1 [Example 57]	–	10 to 31.6	–	0.1 to 1	1 to 10	0.1 to 1	0.1 to 1
CCc1cc(O)ccc1-c1ccc2c(-c3nc(C4=CCN(C5COC5)CC4)c[nH]3)n[nH]c2c1F [Example 64]	–	10 to 31.6	–	0.1 to 1	1 to 10	0.1 to 1	0.1 to 1
CCc1cc(O)ccc1-c1ccc2c(-c3nc(C4=CCCN(C5COC5)C4)c[nH]3)n[nH]c2c1F [Example 70]	–	31.6 to 100	–	0.1 to 1	10 to 100	0.1 to 1	1 to 10
CCc1cc(O)ccc1-c1ccc2c(-c3nc(C4=CCN(C5COC5)C4)c[nH]3)n[nH]c2c1F [Example 75]	–	10 to 31.6	–	0.1 to 1	1 to 10	0.1 to 1	0.1 to 1
CCc1cc(O)ccc1-c1ccc2c(-c3nc(C4=CCN(CCSC)CC4)c[nH]3)n[nH]c2c1F [Example 81]	A (A represents a pKi value ≥10 (Ki≤0.1 nM))	31.6 to 100	–	0.1 to 1	1 to 10	–	0.1 to 1
CCc1cc(O)ccc1-c1ccc2c(-c3nc(C4=CCCN(CCSC)C4)c[nH]3)n[nH]c2c1F [Example 90]	–	31.6 to 100	–	0.1 to 1	10 to 100	0.1 to 1	0.1 to 1
CCc1cc(O)ccc1-c1ccc2c(-c3nc(C4=CCN(C(=O)CN)CC4)c[nH]3)n[nH]c2c1 [Example 152]	A (A represents a pKi value ≥10 (Ki≤0.1 nM))	10 to 31.6	–	0.1 to 1	1 to 10	–	0.1 to 1
CCc1cc(O)ccc1-c1ccc2c(-c3nc(C4=CCN(C(=O)[C@@H](N)C(C)(C)O)CC4)c[nH]3)n[nH]c2c1 [Example 153]	A (A represents a pKi value ≥10 (Ki≤0.1 nM))	31.6 to 100	–	0.1 to 1	1 to 10	–	0.1 to 1
CCc1cc(O)ccc1-c1ccc2c(-c3nc(C4=CCN(C(=O)CN)CC4)c[nH]3)n[nH]c2c1F [Example 157]	A (A represents a pKi value ≥10 (Ki≤0.1 nM))	31.6 to 100	–	0.1 to 1	1 to 10	–	0.1 to 1
CCc1cc(O)ccc1-c1ccc2c(-c3nc(C4=CCN(C(=O)[C@@H](N)C(C)(C)O)CC4)c[nH]3)n[nH]c2c1F [Example 158]	–	31.6 to 100	–	0.1 to 1	10 to 100	0.1 to 1	1 to 10
CCc1cc(O)ccc1-c1ccc2c(-c3nc(C4=CCN(C(=O)CN)C4)c[nH]3)n[nH]c2c1F [Example 173]	A (A represents a pKi value ≥10 (Ki≤0.1 nM))	31.6 to 100	–	0.1 to 1	1 to 10	–	0.1 to 1
CCc1cc(O)ccc1-c1ccc2c(-c3nc(C4=CCN(C(=O)[C@@H](N)C(C)(C)O)C4)c[nH]3)n[nH]c2c1F [Example 174]	–	10 to 31.6	–	0.1 to 1	1 to 10	0.1 to 1	0.1 to 1
CCc1cc(O)ccc1-c1ccc2c(-c3nc(C4=CCN(S(=O)(=O)C5CNC5)CC4)c[nH]3)n[nH]c2c1 [Example 175]	–	31.6 to 100	–	0.1 to 1	1 to 10	0.1 to 1	0.1 to 1
CCc1cc(O)ccc1-c1ccc2c(-c3nc(C4=CCN(S(=O)(=O)C5CNC5)CC4)c[nH]3)n[nH]c2c1F [Example 178]	–	100 to 316	–	1 to 10	10 to 100	0.1 to 1	1 to 10
